The values that follow come from BindingDB's records for doi:10.1016/j.bmcl.2007.05.064 (Sungkyunkwan University, 2007).

The IC50 is the concentration at which inhibition is half-maximal. Read a low IC50 as greater potency in that assay.

The test has as its target cGMP-specific 3',5'-cyclic phosphodiesterase (Homo sapiens, UniProt O76074). As to the kind of experiment: Inhibition of PDE5.

SMILES strings stand for the structures.

The compound `CCCc1nn(C)c2c(=O)[nH]c(-c3cc(S(=O)(=O)N4CCN(C)CC4)cc4c3OCO4)nc12` came in with an IC50 of 426 nM.
